Test results taken from patent publication US4265808A, “Pharmacologically active peptides” (Eli Lilly and Company, priority 1979, dated 1981).
Structures can show the parent of a compound that is named as a salt. Where a SMILES comes first, the peptide text is derived from it. [ ]: non-standard residue; d: D form. NEtPhe(4-F) = CCN[C@@H](Cc1ccc(F)cc1)C(=O)O

Tested on: mouse
Assay: mouse hot plate test (analgesic activity)
Assay type: in vivo
Conditions: hot plate 52° C., 15 minutes after administration, latency to jump; for Analgesic Activity, Hot Plate Test ED50, mg./kg. subcutaneous: subcutaneous injection
Method: In this test, a mouse is placed inside an upright acrylic cylinder comprising, as its base, a hot plate surface which is maintained at 52° C. The mouse is given, orally or by subcutaneous injection, a predetermined amount of test compound dissolved or suspended in a suitable carrier, and, 15 minutes after administration of the test compound, the mouse is placed on the hot plate surface. The latency in seconds until the mouse jumps from the hot plate surface is measure. […] This must occur in a dose range which produces no motor incoordination or incapacitation. The following Table records the ED50 results obtained from this test.

With CCN(C(=O)CNC(=O)[C@@H](C)NC(=O)[C@@H](N)Cc1ccc(O)cc1)[C@@H](Cc1ccc(F)cc1)C(N)=O [Example 1, L-Tyrosyl-D-alanyl-glycyl-L-(N-ethyl)-p-fluorophenylalanine Amide, Acetate Salt] the “Analgesic Activity, Hot Plate Test ED50, mg./kg. oral” value was 19 mg/kg and the “Analgesic Activity, Hot Plate Test ED50, mg./kg. subcutaneous” value (shortened to “Analgesic Activity … mg./kg. subcutaneous”) was 0.00018 mg/kg.
With CCN(C(=O)CNC(=O)[C@H](NC(=O)[C@@H](N)Cc1ccc(O)cc1)[C@H](C)O)[C@@H](Cc1ccc(F)cc1)C(N)=O [Example 2, L-Tyrosyl-D-threonyl-glycyl-L-(N^α -ethyl)-p-fluorophenylalanine Amide, Acetate Salt] (H-Y[dT]G[NEtPhe(4-F)]-NH2) the “Analgesic Activity … mg./kg. subcutaneous” value was 0.0121 mg/kg.
In the case of CCN(C(=O)CNC(=O)[C@@H](C)NC(=O)[C@H](Cc1ccc(O)cc1)NC)[C@@H](Cc1ccc(F)cc1)C(N)=O [Example 3, L-N^α -Methyl-tyrosyl-D-alanyl-glycyl-L-(N^α -Ethyl)-p-fluorophenylalanine Amide, Acetate Salt], the “Analgesic Activity, Hot Plate Test ED50, mg./kg. oral” value is reported as 3.55 mg/kg and the “Analgesic Activity … mg./kg. subcutaneous” value is reported as 0.0117 mg/kg.
